Test results from article PMC7317212 (Chemmedchem, 2020).
Like-named read-outs stand apart in the source and are kept apart here.

How the values were obtained:
mGAT1 [1] = molecular target: T1, mGAT1 (Mus musculus, UniProt P31648); assay: MS Binding Assay with NO711 as native MS marker; details: MS Binding Assay, NO711 marker; pKi±SEM; read-out: pK i mGAT1 (converted)
T1 construct: expressed in transfected cells; host or cells: HEK293
Procedure, shortened: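 Competitive MS binding using membranes from HEK293 cells stably expressing mGAT1, with 10 nM unlabeled NO711 as marker and compounds at 7 concentrations. Nonspecific binding defined with 100 mM GABA. Bound NO711 eluted after filtration and quantified by LC-ESI-MS/MS against [2H10]NO711; Ki derived.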

mGAT1 [2] = molecular target: T1, mGAT1; assay: [^3H]GABA uptake assay, HEK293 cells expressing mGAT1; assay type: cell-based; details: [^3H]GABA uptake; pIC50±SEM
Procedure, shortened: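 HEK293 cells expressing mouse GATs preincubated 25 min at 37 °C with compound in Krebs buffer pH 7.2, then [3H]GABA added: 8 nM plus 32 nM unlabeled for 4 min (mGAT1/3/4), 20 nM plus 20 nM for 10 min (mGAT2). Filtration, scintillation counting; nonspecific uptake with 10 mM (mGAT1/3/4) or 100 mM GABA (mGAT2); pIC50.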

mGAT4 = molecular target: T2, mGAT4 (Mus musculus, UniProt P31650); assay: GABA uptake inhibition at mGAT4 with varied preincubation time; assay type: cell-based
T2 construct: expressed in transfected cells; host or cells: HEK293
T2 sequence (P31650 1-627): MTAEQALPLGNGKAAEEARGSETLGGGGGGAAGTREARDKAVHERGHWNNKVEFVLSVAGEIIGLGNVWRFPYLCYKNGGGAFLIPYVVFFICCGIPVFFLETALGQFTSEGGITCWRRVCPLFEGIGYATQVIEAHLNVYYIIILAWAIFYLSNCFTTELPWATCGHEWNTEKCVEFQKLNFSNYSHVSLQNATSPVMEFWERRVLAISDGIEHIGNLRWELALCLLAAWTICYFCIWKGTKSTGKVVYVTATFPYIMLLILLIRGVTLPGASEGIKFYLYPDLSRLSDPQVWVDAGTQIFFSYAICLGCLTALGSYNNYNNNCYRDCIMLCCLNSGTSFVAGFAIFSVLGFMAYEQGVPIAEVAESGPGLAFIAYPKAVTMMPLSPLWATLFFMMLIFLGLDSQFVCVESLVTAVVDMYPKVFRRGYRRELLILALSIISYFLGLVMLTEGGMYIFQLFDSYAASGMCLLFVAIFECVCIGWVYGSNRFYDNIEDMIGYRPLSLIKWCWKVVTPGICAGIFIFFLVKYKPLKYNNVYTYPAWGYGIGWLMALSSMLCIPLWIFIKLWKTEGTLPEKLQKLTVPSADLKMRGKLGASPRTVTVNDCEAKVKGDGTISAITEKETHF

Structure (SMILES): COc1ccc(C(OCCN2CCCC(C(=O)O)C2)(c2ccc(C=O)cc2)c2ccc(OC)cc2)cc1 (racemic) [5 a, rac‐ 1‐{2‐[(4‐Formylphenyl)bis(4‐methoxyphenyl)methoxy]ethyl}piper‐idine‐3‐carboxylic acid]
- Ki (mGAT1 [1]): 38900 nM
- IC50 (mGAT1 [2]): 67600 nM
- IC50 (mGAT4; Experiment No. 1, preincubation time 10 min, read-out: pIC50 mGAT4 (converted)): 1350 nM
- IC50 (mGAT4; Experiment No. 1, preincubation time 25 min, read-out: pIC50 mGAT4 (converted)): 1050 nM
- IC50 (mGAT4; Experiment No. 1, preincubation time 60 min, read-out: pIC50 mGAT4 (converted)): 912 nM
- IC50 (mGAT4; Experiment No. 2, preincubation time 10 min, read-out: pIC50 mGAT4 (converted)): 2690 nM
- IC50 (mGAT4; Experiment No. 2, preincubation time 25 min, read-out: pIC50 mGAT4 (converted)): 1860 nM
- IC50 (mGAT4; Experiment No. 2, preincubation time 60 min, read-out: pIC50 mGAT4 (converted)): 1230 nM
- IC50 (mGAT4; Experiment No. 3, preincubation time 10 min, read-out: pIC50 mGAT4 (converted)): 2690 nM
- IC50 (mGAT4; Experiment No. 3, preincubation time 25 min, read-out: pIC50 mGAT4 (converted)): 1480 nM
- IC50 (mGAT4; Experiment No. 3, preincubation time 60 min, read-out: pIC50 mGAT4 (converted)): 1660 nM
- IC50 (mGAT4; Experiment No. 4, preincubation time 25 min, read-out: pIC50 mGAT4 (converted)): 2000 nM
- IC50 (mGAT4; Experiment No. 4, preincubation time 60 min, read-out: pIC50 mGAT4 (converted)): 617 nM
- IC50 (mGAT4; Experiment No. 5, preincubation time 25 min, read-out: pIC50 mGAT4 (converted)): 1580 nM
- IC50 (mGAT4; Experiment No. 5, preincubation time 60 min, read-out: pIC50 mGAT4 (converted)): 1260 nM
- IC50 (mGAT4; Experiment No. 6, preincubation time 25 min, read-out: pIC50 mGAT4 (converted)): 1380 nM
- IC50 (mGAT4; Experiment No. 6, preincubation time 60 min, read-out: pIC50 mGAT4 (converted)): 1020 nM
- Normalized pIC50 mGAT4 (mGAT4; preincubation time 10 min, experiments 1-3, relative to 25 min = 100.00): 97.98
- IC50 (mGAT4; preincubation time 10 min, experiments 1-3, read-out: Average pIC50 mGAT4 (converted)): 2140 nM
- Normalized pIC50 mGAT4 (mGAT4; preincubation time 25 min, experiments 1-3 (reference)): 100.00
- IC50 (mGAT4; preincubation time 25 min, experiments 1-3, read-out: Average pIC50 mGAT4 (converted)): 1410 nM
- Normalized pIC50 mGAT4 (mGAT4; preincubation time 25 min, experiments 4-6 (reference)): 100.00
- IC50 (mGAT4; preincubation time 25 min, experiments 4-6, read-out: Average pIC50 mGAT4 (converted)): 1620 nM
- Normalized pIC50 mGAT4 (mGAT4; preincubation time 60 min, experiments 1-3, relative to 25 min = 100.00): 101.08
- IC50 (mGAT4; preincubation time 60 min, experiments 1-3, read-out: Average pIC50 mGAT4 (converted)): 1230 nM
- Normalized pIC50 mGAT4 (mGAT4; preincubation time 60 min, experiments 4-6, relative to 25 min = 100.00): 104.26
- IC50 (mGAT4; preincubation time 60 min, experiments 4-6, read-out: Average pIC50 mGAT4 (converted)): 933 nM
